In patent EP0334164A2, “Antihypertensive combination preparation” (F. HOFFMANN-LA ROCHE AG, priority 1988, dated 1989):

Key:
[1] = test system: Patienten mit einer essentiellen Hypertonie; assay: Crossover study, 3-week treatment periods, sitting blood pressure in hypertensive patients; format: in vivo, human; conditions: 3 weeks treatment, 2,5 mg Cilazapril and/or 120 mg Propranolol; for mittlere Senkung des diastolischen Blutdrucks: 2 Stunden after dosing, sitting, 13 patients; for Ansprechen (Senkung des diastolischen Blutdrucks auf unter 90 mmHg): number of responders
Method: B) Zehn männliche und drei weibliche Patienten mit einer essentiellen Hypertonie im Alter von 43-62 Jahren und mit einem Gewicht von 64-106 kg nahmen an dieser Crossover-Studie teil, die folgende drei Behandlungsabschnitte von jeweils 3 Wochen umfasste, wobei die Abschnitte (1) und (2) je nach Gruppe vertauscht waren: • (1) 2,5 mg Cilazapril • (2) 120 mg Propranolol • (3) 2,5 mg Cilazapril plus 120 mg Propranolol.
Mit Ausnahme von drei Patienten erhielt keiner während mindestens 2 Wochen vor Beginn einer zweiwöchigen Placebo-Behandlung eine blutdrucksenkende Medikation. […] Dann wurden die Patienten wahlweise in zwei Gruppen eingeteilt, wobei die eine Gruppe zuerst mit Cilazapril und die andere zuerst mit Propranolol behandelt wurde. Nach der dreiwöchigen Behandlungsdauer wurde die Medikation in den beiden Gruppen ausgetauscht. Während der Behandlungsabschnitte wurden alle Messungen 2 Stunden nach Verabreichung durchgeführt, wobei der Blutdruck jeweils im Sitzen gemessen wurde.
Als "Ansprechen" auf eine Therapie wurde in dieser Studie eine Senkung des diastolischen Blutdrucks auf unter 90 mmHg defineriert.

[2] = test system: gesunde männliche Probanden; assay: Double-blind 4-way crossover study, 7-day treatment periods, blood pressure and pulse in healthy volunteers; format: in vivo, human; conditions: for Diastolische Blutdruckwerte am 7. Versuchstag, Mittelwert / Systolische Blutdruckwerte am 7. Versuchstag, Mittelwert: mean of 6 Probanden, day 7, lying, 2,5 mg Cilazapril and/or 120 mg Propranolol daily; for Abfall des systolischen und diastolischen Blutdrucks: Monotherapie (2,5 mg Cilazapril or 120 mg Propranolol), day 7, healthy volunteers
Method: […] Proband […], wurde vor Beginn der Studie von jedem Probanden die […], und man […] Kontrollen verbunden war: […] Die Probanden hatten jeweils an den Versuchstagen 0 bis 6 […] zu […] Abend […] noch geraucht. Nach 5-minütiger Ruhepause im Sitzen wurden systolischer und diastolischer Blutdruck und Puls […] die Probanden […], und man […] unter Ueberwachung die Medikation mit 100 ml Leitungswasser und […] Hause. Am […] Probanden […]; die Untersuchungen […] bei 15° erhobenem Oberkörper durchgeführt. Nach jeweils 15-minütiger […] und Puls zu den Zeitpunkten -2, 1, 2, 6, 8 und 24 Stunden gemessen.

[3] = test system: Patienten, deren Bluthochdruck mit Captopril behandelt wird; conditions: added to Captopril treatment; Amery et al., Clinical Science 61 (1981); cited from earlier work

SMILES | mittlere Senkung des diastolischen Blutdrucks [1] [mmHg] | Ansprechen (Senkung des diastolischen Blutdrucks auf unter 90 mmHg) [1] [von 13 Patienten] | Diastolische Blutdruckwerte am 7. Versuchstag, Mittelwert ([2]; 1 Std) [mmHg] | Systolische Blutdruckwerte am 7. Versuchstag, Mittelwert ([2]; 1 Std) [mmHg] | Diastolische Blutdruckwerte am 7. Versuchstag, Mittelwert ([2]; 2 Std) [mmHg] | Systolische Blutdruckwerte am 7. Versuchstag, Mittelwert ([2]; 2 Std) [mmHg] | Diastolische Blutdruckwerte am 7. Versuchstag, Mittelwert ([2]; 6 Std) [mmHg] | Systolische Blutdruckwerte am 7. Versuchstag, Mittelwert ([2]; 6 Std) [mmHg] | Diastolische Blutdruckwerte am 7. Versuchstag, Mittelwert ([2]; 8 Std) [mmHg] | Systolische Blutdruckwerte am 7. Versuchstag, Mittelwert ([2]; 8 Std) [mmHg] | Diastolische Blutdruckwerte am 7. Versuchstag, Mittelwert ([2]; 24 Std) [mmHg] | Systolische Blutdruckwerte am 7. Versuchstag, Mittelwert ([2]; 24 Std) [mmHg] | Diastolische Blutdruckwerte am 7. Versuchstag, Mittelwert ([2]; -2 Std) [mmHg] | Systolische Blutdruckwerte am 7. Versuchstag, Mittelwert ([2]; -2 Std) [mmHg] | Abfall des systolischen und diastolischen Blutdrucks [2] | Zunahme der Herzfrequenz ([2]; Monotherapie, 2,5 mg Cilazapril, day 7) | Abnahme der Herzfrequenz ([2]; Monotherapie, 120 mg Propranolol, day 7) | Blood pressure effect of additional Propranolol [3]
CCOC(=O)[C@H](CCc1ccccc1)N[C@H]1CCCN2CCC[C@@H](C(=O)O)N2C1=O [Cilazapril, 9(S)-[1-(S)-Aethoxycarbonyl-3-phenylpropylamino]octahydro-10-oxo-6H-pyridazo[1,2-a]-[1,2]diazepin-1(S)-carbonsäure] | 8 | 4 | 72 | 109 | 69 | 104 | 63 | 107 | 66 | 108 | 74 | 118 | 73 | 109 | ca. 7 mmHg | ca. 5 Schläge/Minute |  | 
CC(C)NCC(O)COc1cccc2ccccc12 (stereo not drawn) [Propranolol] | 9 | 2 | 63 | 106 | 67 | 106 | 60 | 110 | 65 | 108 | 76 | 115 | 72 | 111 | ca. 7 mmHg |  | ca. 8 Schläge/Minute | eine weitere Blutdrucksenkung
